In patent US20170121315A1, “HETEROBICYCLICALLY SUBSTITUTED 4-OXOBUTANE ACID DERIVATIVES AND USE THEREOF” (priority 2014, published 2017):

biological target: T1, human macrophage elastase (HME/hMMP-12) (Homo sapiens, UniProt P39900); assay: In vitro HME inhibition test (standard or high-sensitivity); format: biochemical; settings: in some cases mean values, rounded to two significant figures
T1 construct: purchased R&D Systems 917-MP
Method: The potency of the compounds according to the invention with respect to HME (MMP-12) is determined in an in vitro inhibition test. The HME-mediated amidolytic cleavage of a suitable peptide substrate leads to an increase in fluorescent light therein. The signal intensity of the fluorescent light is directly proportional to the enzyme activity. The active concentration of a test compound at which half the enzyme is inhibited (50% signal intensity of the fluorescent light) is reported as the IC50 value.
In a 384 hole microtiter plate, in a total test volume of 41 μl, the test buffer (0.1 M HEPES pH 7.4, 0.15 M NaCl, 0.03 M CaCl2, 0.004 mM ZnCl2, 0.02 M EDTA, 0.005% Brij®), the enzyme (0.5 nM HME; R&D Systems, 917-MP, autocatalytic activation according to the manufacturer's instructions) and the intramolecularly quenched substrate [5 μM Mca-Pro-Leu-Gly-Leu-Glu-Glu-Ala-Dap(Dnp)-NH2; Bachem, M-2670] are incubated in the absence and presence of the test substance (as a solution in DMSO) at 37° C. for two hours. The fluorescence intensity of the test mixtures is measured (excitation […], emission 393 nm). The IC50 values are ascertained by plotting the fluorescent light intensity against the active ingredient concentration.
In this case, an enzyme concentration ten times lower is used (final concentration, e.g. 0.05 nM) in order to achieve an increased test sensitivity. The incubation period chosen for the test is correspondingly longer (e.g. 16 hours).

T1 sequence (P39900 106-470): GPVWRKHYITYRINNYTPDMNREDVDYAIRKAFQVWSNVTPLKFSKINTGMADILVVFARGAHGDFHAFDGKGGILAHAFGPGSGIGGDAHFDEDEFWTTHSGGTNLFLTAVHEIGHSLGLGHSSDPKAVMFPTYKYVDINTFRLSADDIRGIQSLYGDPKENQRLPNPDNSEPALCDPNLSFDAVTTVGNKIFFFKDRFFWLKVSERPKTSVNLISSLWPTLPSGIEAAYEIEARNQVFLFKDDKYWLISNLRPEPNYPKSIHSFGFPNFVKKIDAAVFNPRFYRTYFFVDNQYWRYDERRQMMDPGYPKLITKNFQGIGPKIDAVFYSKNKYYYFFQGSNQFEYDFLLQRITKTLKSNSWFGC

With `O=C(CC(CCn1nnc2ccccc2c1=O)C(=O)O)c1cc2ccc(OCC3CCO3)cc2s1` (racemic) [Example 119, (+/−)-4-{6-[Oxetan-2-ylmethoxy]-1-benzothiophen-2-yl}-4-oxo-2-[2-(4-oxo-1-benzotriazin-3(4H)-yl)ethyl]butanoic acid] as the compound, how does the IC50 read?
Its IC50 is 3.7 nM.

Which IC50 does the source give for `O=C(CC(CCn1nnc2ccccc2c1=O)C(=O)O)c1cc2ccc(OCC3CCCO3)cc2s1` (racemic) [Example 117, (+/−)-4-Oxo-2-[2-(4-oxo-1,2,3-benzotriazin-3(4H)-yl)ethyl]-4-{6-[tetrahydrofuran-2-ylmethoxy]-1-benzothiophen-2-yl}butanoic acid] here?
Its IC50 is 5.9 nM.

`CCCCOc1ccc2c(C(=O)CC(CCn3nnc4ccccc4c3=O)C(=O)O)coc2c1` (racemic) [Example 107, (+/−)-4-(6-Butoxy-1-benzofur-3-yl)-4-oxo-2-[2-(4-oxo-1,2,3-benzotriazin-3(4H)-yl)ethyl]butanoic acid] was tested. Which IC50 did it give?
The IC50 was 0.61 nM.

For `O=C(CC(CCn1nnc2ccccc2c1=O)C(=O)O)c1noc2cc(OCCC3CCCCC3)ccc12` (single isomer, unassigned; enantiomer 2) [Example 143, (+)-4-[6-(2-Cyclohexylethoxy)-1,2-benzoxazol-3-yl]-4-oxo-2-[2-(4-oxo-1,2,3-benzotriazin-3(4H)-yl)ethyl]butanoic acid (enantiomer 2)], which IC50 is on record?
The IC50 was 0.019 nM.

For `CCCCCCCOc1ccc2cc(C(=O)CC(CCn3nnc4ccccc4c3=O)C(=O)O)oc2c1` (single isomer, unassigned; (-)) [Example 68, (−)-4-[6-(Heptyloxy)-1-benzofur-2-yl]-4-oxo-2-[2-(4-oxo-1,2,3-benzotriazin-3(4H)-yl)ethyl]butanoic acid], which IC50 is on record?
Its IC50 is 890 nM.

Which IC50 does the source give for `O=C(CC(CCn1nnc2ccccc2c1=O)C(=O)O)c1cc2cc(OCc3ccccc3)ccc2o1` (racemic) [Example 28, (+/−)-4-[5-(Benzyloxy)-1-benzofur-2-yl]-4-oxo-2-[2-(4-oxo-1,2,3-benzotriazin-3(4H)-yl)ethyl]butanoic acid] here?
The IC50 was 3.1 nM.

With `CCCCOc1ccc2cc(C(=O)CC(CCn3nnc4ccccc4c3=O)C(=O)O)sc2c1` (racemic) [Example 126, (+/−)-4-(6-Butoxy-1-benzothiophen-2-yl)-4-oxo-2-[2-(4-oxo-1,2,3-benzotriazin-3(4H)-yl)ethyl]butanoic acid] as the compound, how does the IC50 read?
The IC50 was 2.9 nM.

`CC(C)CCCOc1ccc2cc(C(=O)CC(CCn3nnc4ccccc4c3=O)C(=O)O)oc2c1` (racemic) [Example 70, (+/−)-4-{6-[(4-Methylpentyl)oxy]-1-benzofur-2-yl}-4-oxo-2-[2-(4-oxo-1,2,3-benzotriazin-3(4H)-yl)ethyl]butanoic acid] was tested. Which IC50 did it give?
Its IC50 is 4.1 nM.

With `CCCOc1ccc2cc(C(=O)CC(CCn3nnc4ccccc4c3=O)C(=O)O)oc2c1` (single isomer, unassigned) [Example 59, 4-Oxo-2-[2-(4-oxo-1,2,3-benzotriazin-3(4H)-yl)ethyl]-4-(6-propoxy-1-benzofur-2-yl)butanoic acid] as the compound, how does the IC50 read?
Its IC50 is 980 nM.

For `CCCCOc1ccc2c(C(=O)CC(CCn3nnc4ccccc4c3=O)C(=O)O)coc2c1` (single isomer, unassigned; (-)) [Example 109, (−)-4-(6-Butoxy-1-benzofur-3-yl)-4-oxo-2-[2-(4-oxo-1,2,3-benzotriazin-3(4H)-yl)ethyl]butanoic acid], which IC50 is on record?
The IC50 was 10 nM.

How did the IC50 turn out when `O=C(CC(CCn1nnc2ccccc2c1=O)C(=O)O)c1cc2cc(OCCCC(F)(F)F)ccc2o1` (single isomer, unassigned; enantiomer 1) [Example 12, (−)-4-Oxo-2-[2-(4-oxo-1,2,3-benzotriazin-3(4H)-yl)ethyl]-4-[5-(4,4,4-trifluorobutoxy)-1-benzofur-2-yl]butanoic acid (enantiomer 1)] was run?
The IC50 was 900 nM.

`O=C(CC(CCn1nnc2ccccc2c1=O)C(=O)O)c1coc2cc(OCc3ccccc3)ccc12` (racemic) [Example 84, (+/−)-4-[6-(Benzyloxy)-1-benzofur-3-yl]-4-oxo-2-[2-(4-oxo-1,2,3-benzotriazin-3(4H)-yl)ethyl]butanoic acid] was tested. Which IC50 did it give?
The IC50 was 4 nM.

`COc1ccc(CCOc2ccc3oc(C(=O)CC(CCn4nnc5ccccc5c4=O)C(=O)O)cc3c2)cc1` (racemic) [Example 3, (+/−)-4-{5-[2-(4-Methoxyphenyl)ethoxy]-1-benzofur-2-yl}-4-oxo-2-[2-(4-oxo-1,2,3-benzotriazin-3(4H)-yl)ethyl]butanoic acid] was tested. Which IC50 did it give?
Its IC50 is 4.1 nM.

How did the IC50 turn out when `CC(C)CCCCOc1ccc2cc(C(=O)CC(CCn3nnc4ccccc4c3=O)C(=O)O)oc2c1` (racemic) [Example 72, (+/−)-4-{6-[(5-Methylhexyl)oxy]-1-benzofur-2-yl}-4-oxo-2-[2-(4-oxo-1,2,3-benzotriazin-3(4H)-yl)ethyl]butanoic acid] was run?
The IC50 was 3.1 nM.

How did the IC50 turn out when `CCCOc1ccc2c(C(=O)CC(CCn3nnc4ccccc4c3=O)C(=O)O)coc2c1` (racemic) [Example 86, (+/−)-4-Oxo-2-[2-(4-oxo-1,2,3-benzotriazin-3(4H)-yl)ethyl]-4-(6-propoxy-1-benzofur-3-yl)butanoic acid] was run?
Its IC50 is 1.4 nM.

How did the IC50 turn out when `CCCCCOc1ccc2cc(C(=O)CC(CCn3nnc4ccccc4c3=O)C(=O)O)oc2c1` (racemic) [Example 55, (+/−)-4-Oxo-2-[2-(4-oxo-1,2,3-benzotriazin-3(4H)-yl)ethyl]-4-[6-(pentyloxy)-1-benzofur-2-yl]butanoic acid] was run?
Its IC50 is 3.7 nM.

For `O=C(CC(CCn1nnc2ccccc2c1=O)C(=O)O)c1cc2cc(OCc3cccc(F)c3)ccc2o1` (racemic) [Example 43, (+/−)-4-{5-[(3-Fluorobenzyl)oxy]-1-benzofur-2-yl}-4-oxo-2-[2-(4-oxo-1,2,3-benzotriazin-3(4H)-yl)ethyl]butanoic acid], which IC50 is on record?
The IC50 was 1.3 nM.

How did the IC50 turn out when `O=C(CC(CCn1nnc2ccccc2c1=O)C(=O)O)c1cc2cc(OCc3ccc(F)cc3)ccc2o1` (single isomer, unassigned; (-)) [Example 24, (−)-4-{5-[(4-Fluorobenzyl)oxy]-1-benzofur-2-yl}-4-oxo-2-[2-(4-oxo-1,2,3-benzotriazin-3(4H)-yl)ethyl]butanoic acid] was run?
Its IC50 is 210 nM.

Which IC50 does the source give for `O=C(CC(CCn1nnc2ccccc2c1=O)C(=O)O)c1coc2cc(OCC3CCCCC3)ccc12` (single isomer, unassigned; (-)) [Example 83, (−)-4-[6-(Cyclohexylmethoxy)-1-benzofur-3-yl]-4-oxo-2-[2-(4-oxo-1,2,3-benzotriazin-3(4H)-yl)ethyl]butanoic acid] here?
The IC50 was 1.4 nM.

How did the IC50 turn out when `O=C(CC(CCn1nnc2ccccc2c1=O)C(=O)O)c1cc2cc(OCCc3ccccc3)ccc2o1` (racemic) [Example 19, (+/−)-4-Oxo-2-[2-(4-oxo-1,2,3-benzotriazin-3(4H)-yl)ethyl]-4-[5-(2-phenylethoxy)-1-benzofur-2-yl]butanoic acid] was run?
Its IC50 is 4.7 nM.

With `O=C(CC(CCn1nnc2ccccc2c1=O)C(=O)O)c1coc2cc(OCc3cccc(Cl)c3)ccc12` (racemic) [Example 77, (+/−)-4-{6-[(3-Chlorobenzyl)oxy]-1-benzofur-3-yl}-4-oxo-2-[2-(4-oxo-1,2,3-benzotriazin-3(4H)-yl)ethyl]butanoic acid] as the compound, how does the IC50 read?
Its IC50 is 2.9 nM.

For `CCCCOc1ccc2cc(C(=O)CC(CCn3nnc4ccccc4c3=O)C(=O)O)oc2c1` (single isomer, unassigned; (+)) [Example 63, (+)-4-(6-Butoxy-1-benzofur-2-yl)-4-oxo-2-[2-(4-oxo-1,2,3-benzotriazin-3(4H)-yl)ethyl]butanoic acid], which IC50 is on record?
The IC50 was 2.2 nM.

How did the IC50 turn out when `Cc1c(COc2ccc3oc(C(=O)CC(CCn4nnc5ccccc5c4=O)C(=O)O)cc3c2)cccc1C(F)(F)F` (racemic) [Example 48, (+/−)-4-(5-{[2-Methyl-3-(trifluoromethyl)benzyl]oxy}-1-benzofur-2-yl)-4-oxo-2-[2-(4-oxo-1,2,3-benzotriazin-3(4H)-yl)ethyl]butanoic acid] was run?
The IC50 was 4 nM.

With `O=C(CC(CCn1nnc2ccccc2c1=O)C(=O)O)c1noc2cc(OCCC3CCCC3)ccc12` (racemic) [Example 151, (+/−)-4-[6-(2-Cyclopentylethoxy)-1,2-benzoxazol-3-yl]-4-oxo-2-[2-(4-oxo-1,2,3-benzotriazin-3(4H)-yl)ethyl]butanoic acid] as the compound, how does the IC50 read?
The IC50 was 0.27 nM.

For `O=C(CC(CCn1nnc2ccccc2c1=O)C(=O)O)c1cc2cc(OCC3CCCCC3)ccc2o1` (single isomer, unassigned; enantiomer 1) [Example 9, (−)-4-[5-(Cyclohexylmethoxy)-1-benzofur-2-yl]-4-oxo-2-[2-(4-oxo-1,2,3-benzotriazin-3(4H)-yl)ethyl]butanoic acid (enantiomer 1)], which IC50 is on record?
The IC50 was 370 nM.

How did the IC50 turn out when `CC(C)COc1ccc2c(C(=O)CC(CCn3nnc4ccccc4c3=O)C(=O)O)coc2c1` (single isomer, unassigned; (-)) [Example 106, (−)-4-(6-Isobutoxy-1-benzofur-3-yl)-4-oxo-2-[2-(4-oxo-1,2,3-benzotriazin-3(4H)-yl)ethyl]butanoic acid] was run?
The IC50 was 31 nM.

For `CCCOc1ccc2cc(C(=O)CC(CCn3nnc4ccc(C(F)(F)F)cc4c3=O)C(=O)O)sc2c1` (racemic) [Example 132, (+/−)-4-Oxo-2-{2-[4-oxo-6-(trifluoromethyl)-1,2,3-benzotriazin-3(4H)-yl]ethyl}-4-(6-propoxy-1-benzothiophen-2-yl)butanoic acid], which IC50 is on record?
The IC50 was 0.51 nM.
